Measurements from patent US4438117A, “2-Substituted thio-4,5-diarylpyrimidines” (E. I. Du Pont de Nemours and Company, priority 1980, dated 1984).

Legend:
[1] = tested on: Adjuvant-Induced Arthritis in Rats; assay: Established adjuvant-induced arthritis in rats (antiinflammatory activity, paw volume); assay type: in vivo, Charles River Lewis male rats; details: oral by gavage, that day and 6 following days; for AA % Reduction @ 27 mg/kg: % reduction in paw volume at 27 mg/kg, * p <0.05 (Examples 2, 3, 6), ** p >0.1 (Example 9) compared to control
Procedure: A procedure for detecting and comparing the antiinflammatory activity of compounds in this series and standard drugs for which there is a good correlation with human efficacy is the adjuvant-induced arthritis test in rats.
Charles River Lewis male rats (130-150 grams) are injected subcutaneously in plantar area of the right hind paw with 0.1 ml of adjuvant (Difco heat-killed, lyophilized Mycobacterium butyricum suspended in mineral oil 5 mg/ml). 20 Non-arthritic controls are injected with mineral oil. The animals are held for 2 weeks to allow development of arthritis. Paw volumes (uninjected, left hind paw) are measured and the adjuvant injected rats are culled and distributed to treatment groups of 10 of equal disease severity. Non-arthritic controls are distributed to 2 groups of 10. The rats are given oral doses of compound or PVA-Acacia (Polyvinyl Alcohol 1%, Gum Acacia, U.S.P. 5%, Methylparaben 0.5%) (10 ml/kg) by gavage on that day and on the 6 following days. One day after the last dose the paw volumes (uninjected, left hind paw) are measured using a Ugo Basile Volume Differential Meter Model 7101. [formula]
Dose-response regression lines of the % decrease are plotted on semi-log paper by visual fit and the ED50% decrease from control paw volume is determined by inspection. Alternatively, % reduction in paw volume was measured at a dose of 27 mg/kg.

[2] = tested on: phenylquinone writhing; assay: Phenylquinone writhing test (analgesic activity); assay type: in vivo, female white mice; details: Mus musculus; oral in 1% methylcellulose, fasted mice, observed from 30 minutes after dosing for 10 minutes; effective analgesic dose for 50% of the mice; read-out: PQW ED50
Procedure: A procedure for detecting and comparing the analgesic activity of compounds in this series and standard drugs for which there is a good correlation with human efficacy is the phenylquinone writhing test.
The phenylquinone writhing test, modified from Siegmund, et al., Proc. Soc. Exp. Biol. Med. 95, 729 (1957), was employed. A test compound suspended in 1% methylcellulose was given orally to fasted (17-21 hours) female white mice, 5-20 animals per double blind test. Aqueous (0.01% phenyl-p-benzoquinone) phenylquinone was injected intraperitoneally 24 minutes later using 0.20 ml per mouse. […] The effective analgesic dose for 50% of the mice (ED50) was calculated by the moving average method of Thompson, W. R., Bact. Rev., 11, 115-145 (1947).

## Fc1ccc(-c2cnc(SC(F)(F)C(F)F)nc2-c2ccc(F)cc2)cc1 [Example 4]
[1]
  AA % Reduction @ 27 mg/kg: 0%
[2]
  ED50: 45 mg/kg

## COc1ccc(-c2nc(SC(F)(F)F)ncc2-c2ccc(Cl)cc2)cc1 [Example 7]
[1]
  AA % Reduction @ 27 mg/kg: 0%
[2]
  ED50: 49 mg/kg

## COc1ccc(-c2cnc(SC(F)(F)C(F)F)nc2-c2ccc(OC)cc2)cc1 [Example 1, 2-(1,1,2,2-Tetrafluoroethylthio)-4,5-bis(4-methoxyphenyl)pyrimidine]
[1]; Rattus norvegicus, ED50% decrease from control paw volume, uninjected left hind paw, read-out: AA ED50
  ED50: 25 mg/kg
[2]
  ED50: > 108 mg/kg

## COc1ccc(-c2cnc(SC)nc2-c2ccc(OC)cc2)cc1 [Example 9]
[1]
  AA % Reduction @ 27 mg/kg: 16%
[2]
  ED50: 108 mg/kg

## COc1ccc(-c2nc(SC)ncc2-c2ccc(Cl)cc2)cc1 [Example 3, 2-Methylthio-4-(4-methoxyphenyl)-5-(4-chlorophenyl)-pyrimidine]
[1]
  AA % Reduction @ 27 mg/kg: 39%
[2]
  ED50: > 108 mg/kg

## Fc1ccc(-c2cnc(SC(F)(F)F)nc2-c2ccc(F)cc2)cc1 [Example 2, 2-Trifluoromethylthio-4,5-bis(4-fluorophenyl)-pyrimidine]
[1]
  AA % Reduction @ 27 mg/kg: 37%
[2]
  ED50: > 108 mg/kg

## COc1ccc(-c2cnc(SC(F)(F)F)nc2-c2ccc(OC)cc2)cc1 [Example 6]
[1]
  AA % Reduction @ 27 mg/kg: 32%
[2]
  ED50: 48 mg/kg
